What follows are compounds tested against WIL-FL (Homo sapiens, UniProt P01721) (assay: Unlabeled LC Protease Sensitivity Assay (proteinase K)). Conditions: small molecule 10 μM, WIL-FL 5 μM, proteinase K 50 nM, 2 hours at 37° C.
Type: biochemical
Method in brief: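 WIL-FL light chain (5 μM) in PBS pH 7.4 + 0.02% Pluronic F-127 digested with proteinase K (50 nM) for 2 h at 37 °C with 10 μM compound (1% DMSO). Intact WIL-FL quantified by size-exclusion UPLC (A280). Fold protection = (A_compound−A_vehicle)/(A_no_protease−A_vehicle) from peak areas.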

SMILES | Protection (fold protection of LC from protease)
Cc1cc(=O)oc2cc(NCCc3ccccc3)ccc12 [Compound 40, 4-methyl-7-(phenethylamino)-2H-chromen-2-one] | A (A < 0.3))
CCN(CC)c1ccc2c(CCCOC(=O)NCc3cccc(C(N)=O)c3)cc(=O)oc2c1 [Compound 302, 3-(7-(diethylamino)-2-oxo-2H-chromen-4-yl)propyl (3-carbamoylbenzyl)carbamate] | A (A < 0.3))
C#CCN(CC)c1ccc2c(C)cc(=O)oc2c1 [Compound 271, 7-(ethyl(prop-2-yn-1-yl)amino)-4-methyl-2H-chromen-2-one] | A (A < 0.3))
Cc1cc(=O)oc2cc(C(=O)Nc3ccc4scnc4c3)ccc12 [Compound 239, N-(benzo[d]thiazol-5-yl)-4-methyl-2-oxo-2H-chromene-7-carboxamide] | A (A < 0.3))
CCN(CC)c1ccc2c(C)c(CCNC(=O)NCc3cccc(OCC(=O)O)c3)c(=O)oc2c1 [Compound 311, 2-(3-((3-(2-(7-(diethylamino)-4-methyl-2-oxo-2H-chromen-3-yl)ethyl)ureido)methyl)phenoxy)acetic acid] | B (3 ≤ B < 0.6)
CCN(CC)c1ccc2c(C)c(CCN3C(=O)NC4(CCN(c5ccc(C#N)cn5)CC4)C3=O)c(=O)oc2c1 [Compound 191, 6-(3-(2-(7-(diethylamino)-4-methyl-2-oxo-2H-chromen-3-yl)ethyl)-2,4-dioxo-1,3,8-triazaspiro[4.5]decan-8-yl)nicotinonitrile] | A (A < 0.3))
CCN(CC)c1ccc2c(C)c(CCOC(=O)NCc3nccc4ccccc34)c(=O)oc2c1 [Compound 139, 2-(7-(diethylamino)-4-methyl-2-oxo-2H-chromen-3-yl)ethyl (isoquinolin-1-ylmethyl)carbamate] | A (A < 0.3))
CCN(CC)c1ccc2c(C)c(CCOC(=O)NCc3cccc(-c4ccc[nH]c4=O)c3)c(=O)oc2c1 [Compound 163, 2-(7-(diethylamino)-4-methyl-2-oxo-2H-chromen-3-yl)ethyl (3-(2-oxo-1,2-dihydropyridin-3-yl)benzyl)carbamate] | C (C ≥ 0.6)
CCN(CC)c1ccc2c(C)c(CCOC(=O)NC)c(=O)oc2c1 [Compound 79, 2-(7-(diethylamino)-4-methyl-2-oxo-2H-chromen-3-yl)ethyl methylcarbamate] | A (A < 0.3))
CCN(CC)c1ccc2c(C)c(CCN3C(=O)NC4(CCN(c5ncccn5)CC4)C3=O)c(=O)oc2c1 [Compound 185, 3-(2-(7-(diethylamino)-4-methyl-2-oxo-2H-chromen-3-yl)ethyl)-8-(pyrimidin-2-yl)-1,3,8-triazaspiro[4.5]decane-2,4-dione] | C (C ≥ 0.6)
CCN(CC)c1ccc2c(C)c(CCN3C(=O)NC4(CCN(C(=O)c5c[nH]cn5)CC4)C3=O)c(=O)oc2c1 [Compound 176, 3-(2-(7-(diethylamino)-4-methyl-2-oxo-2H-chromen-3-yl)ethyl)-8-(1H-imidazole-4-carbonyl)-1,3,8-triazaspiro[4.5]decane-2,4-dione] | B (3 ≤ B < 0.6)
CCN(CC)c1ccc2c(C)c(CCN3C(=O)NC4(CCN(c5nccc(C#N)n5)CC4)C3=O)c(=O)oc2c1 [Compound 190, 2-(3-(2-(7-(diethylamino)-4-methyl-2-oxo-2H-chromen-3-yl)ethyl)-2,4-dioxo-1,3,8-triazaspiro[4.5]decan-8-yl)pyrimidine-4-carbonitrile] | C (C ≥ 0.6)
CCN(CC)c1ccc2c(C)c(CCC(=O)NC)c(=O)oc2c1 [Compound 66, 3-(7-(diethylamino)-4-methyl-2-oxo-2H-chromen-3-yl)-N-methylpropanamide] | A (A < 0.3))
CCN(CC)c1ccc2c(CCCOC(=O)NCc3ccncc3)cc(=O)oc2c1 [Compound 301, 3-(7-(diethylamino)-2-oxo-2H-chromen-4-yl)propyl (pyridin-4-ylmethyl)carbamate] | A (A < 0.3))
CCN(CC)c1ccc2c(C)c(CCOC(=O)NCc3ccccn3)c(=O)oc2c1 [Compound 85, 2-(7-(diethylamino)-4-methyl-2-oxo-2H-chromen-3-yl)ethyl (pyridin-2-ylmethyl)carbamate] | B (3 ≤ B < 0.6)
CCN(C)c1ccc2c(C)cc(=O)oc2c1 [Compound 268, 7-(ethyl(methyl)amino)-4-methyl-2H-chromen-2-one] | A (A < 0.3))
Cc1cc(=O)oc2cc(OC(C)c3ccncc3)ccc12 (stereo not shown) [Compound 172, 4-methyl-7-(1-(pyridin-4-yl)ethoxy)-2H-chromen-2-one] | A (A < 0.3))

SMILES | Protection (fold protection of LC from protease)
CCN(CC)c1ccc2c(C)c(CCN3C(=O)NC4(CCN(C(=O)c5ncc[nH]5)CC4)C3=O)c(=O)oc2c1 [Compound 177, 3-(2-(7-(diethylamino)-4-methyl-2-oxo-2H-chromen-3-yl)ethyl)-8-(1H-imidazole-2-carbonyl)-1,3,8-triazaspiro[4.5]decane-2,4-dione] | C (C ≥ 0.6)
CCN(CC)c1ccc2c(C)c(CC(=O)O)c(=O)oc2c1 [Compound 54, 2-(7-(diethylamino)-4-methyl-2-oxo-2H-chromen-3-yl)acetic acid] | A (A < 0.3))
Cc1cc(=O)oc2cc(C(=O)NCc3ccc(O)cc3)ccc12 [Compound 230, N-(4-hydroxybenzyl)-4-methyl-2-oxo-2H-chromene-7-carboxamide] | A (A < 0.3))
CCN(CC)c1ccc2c(C)c(CCNC(=O)NCCc3ccc(O)cc3)c(=O)oc2c1 [Compound 280, 1-(2-(7-(diethylamino)-4-methyl-2-oxo-2H-chromen-3-yl)ethyl)-3-(4-hydroxyphenethyl)urea] | B (3 ≤ B < 0.6)
Cc1cc(=O)oc2cc(OC(C)c3cccnc3)ccc12 (stereo not shown) [Compound 171, 4-methyl-7-(1-(pyridin-3-yl)ethoxy)-2H-chromen-2-one] | A (A < 0.3))
CCN(CC)c1ccc2c(C)c(CCOC(=O)NCc3cccnc3)c(=O)oc2c1 [Compound 89, 2-(7-(diethylamino)-4-methyl-2-oxo-2H-chromen-3-yl)ethyl (pyridin-3-ylmethyl)carbamate] | C (C ≥ 0.6)
CCN(CC)c1ccc2c(C)c(CCOC(=O)NCCc3cccnc3)c(=O)oc2c1 [Compound 83, 2-(7-(diethylamino)-4-methyl-2-oxo-2H-chromen-3-yl)ethyl (2-(pyridin-3-yl)ethyl)carbamate] | A (A < 0.3))
CCN(CC)c1ccc2c(C)c(CCOC(=O)N3CCN(c4cc(C)no4)CC3)c(=O)oc2c1 [Compound 113, 2-(7-(diethylamino)-4-methyl-2-oxo-2H-chromen-3-yl)ethyl 4-(3-methylisoxazol-5-yl)piperazine-1-carboxylate] | A (A < 0.3))
CCN(CC)c1ccc2c(C)c(CCN3C(=O)NC4(CCN(c5ncnc6[nH]cnc56)C4)C3=O)c(=O)oc2c1 (stereo not shown) [Compound 197, 3-(2-(7-(diethylamino)-4-methyl-2-oxo-2H-chromen-3-yl)ethyl)-7-(9H-purin-6-yl)-1,3,7-triazaspiro[4.4]nonane-2,4-dione] | C (C ≥ 0.6)
CCN(CC)c1ccc2c(CCCOC(=O)NCc3ccccc3)cc(=O)oc2c1 [Compound 300, 3-(7-(diethylamino)-2-oxo-2H-chromen-4-yl)propyl benzylcarbamate] | A (A < 0.3))
CCN(CC)c1ccc2c(C)c(CCOC(=O)N(C)CCc3cccnc3)c(=O)oc2c1 [Compound 102, 2-(7-(diethylamino)-4-methyl-2-oxo-2H-chromen-3-yl)ethyl methyl(2-(pyridin-3-yl)ethyl)carbamate] | A (A < 0.3))
CCC(CC)c1ccc2c(C)cc(=O)oc2c1 [Compound 168, 4-methyl-7-(pentan-3-yl)-2H-chromen-2-one] | A (A < 0.3))
CCN(CC)c1ccc2c(C)c(CCOC(=O)NCc3cccc(-c4ncc[nH]4)c3)c(=O)oc2c1 [Compound 153, 2-(7-(diethylamino)-4-methyl-2-oxo-2H-chromen-3-yl)ethyl (3-(1H-imidazol-2-yl)benzyl)carbamate] | C (C ≥ 0.6)
Cc1cc(=O)oc2cc(C(=O)NCc3c[nH]c4ccccc34)ccc12 [Compound 236, N-((1H-indol-3-yl)methyl)-4-methyl-2-oxo-2H-chromene-7-carboxamide] | A (A < 0.3))
CCN(CC)c1ccc2c(C)c(CCNC(=O)NCc3ccncn3)c(=O)oc2c1 [Compound 294, 1-(2-(7-(diethylamino)-4-methyl-2-oxo-2H-chromen-3-yl)ethyl)-3-(pyrimidin-4-ylmethyl)urea] | A (A < 0.3))
C#CCN(CCCF)c1ccc2c(C)cc(=O)oc2c1 [Compound 264, 7-((3-fluoropropyl)(prop-2-yn-1-yl)amino)-4-methyl-2H-chromen-2-one] | A (A < 0.3))
CCN(CC)c1ccc2c(C)c(CCOC(=O)N3CCC(CO)C3)c(=O)oc2c1 (stereo not shown) [Compound 106, 2-(7-(diethylamino)-4-methyl-2-oxo-2H-chromen-3-yl)ethyl 3-(hydroxymethyl)pyrrolidine-1-carboxylate] | A (A < 0.3))

— patent US11945806B2, “Stabilization of amyloidogenic immunoglobulin light chains” (The Scripps Research Institute, priority 2019, dated 2024)
